Assay results taken from ChEMBL document CHEMBL6103585, “Construction and activity evaluation of novel CHS inhibitors against fungal infections” (Eur J Med Chem, 2025).
Values after ≈ are worked out from the molar mass of the structure shown. Active and inactive are the calls of the source. The calls are words filed in the database; no cut-off is given here.

What was measured:
Candida albicans [1] = test: In vivo antifungal activity against Candida albicans 901 infected in mouse model assessed as expansion of alveolar spaces in lung at 5 microg/g, iv pre-infected with fungi by intravenous injection followed by compound administration and measured on day 8 by H and E staining based analysis; type: functional, organism-based; details: dose 5.0 µg/g, time 8.0 day
Cryptococcus neoformans = test: Antifungal activity against Cryptococcus neoformans ZKCC 2209 assessed as fungal growth inhibition incubated for 72 hrs by broth microdilution method; type: functional
Candida tropicalis = test: Antifungal activity against Candida tropicalis ATCC 1369 assessed as fungal growth inhibition incubated for 72 hrs by broth microdilution method; type: functional
Aspergillus fumigatus = test: Antifungal activity against Aspergillus fumigatus KM 8001 assessed as fungal growth inhibition incubated for 72 hrs by broth microdilution method; type: functional
Nakaseomyces glabratus = test: Antifungal activity against Candida glabrata assessed as fungal growth inhibition incubated for 72 hrs by broth microdilution method; type: functional
Candida albicans [2] = test: Antifungal activity against Candida albicans ATCC SC5314 assessed as fungal growth inhibition incubated for 72 hrs by broth microdilution method; type: functional
Candida albicans [3] = test: In vivo antifungal activity against Candida albicans 901 infected in mouse model assessed as body weight gain at 5 microg/g, iv pre-infected with fungi by intravenous injection followed by compound administration and measured on day 8; type: functional, organism-based; details: dose 5.0 µg/g, time 8.0 day
Candida albicans [4] = test: In vivo antifungal activity against Candida albicans 901 infected in mouse model assessed as decrease in IL-2 protein expression level at 5 microg/g, iv pre-infected with fungi by intravenous injection followed by compound administration and measured on day 8 by Western blotting analysis; type: functional, organism-based; details: dose 5.0 µg/g, time 8.0 day
A549 = test: Cytotoxicity against human A549 cells incubated for 24 hrs by CCK8 assay; type: functional, cell-based; details: A549, 24 h
Candida albicans [5] = test: Induction of ROS generation in Candida albicans ATCC SC5314 assessed as increase in fluorescence intensity incubated for 12 hrs by fluorescence microscopic analysis; type: functional, organism-based
Candida albicans [6] = test: Antifungal activity against fluconazole-resistant Candida albicans CaR assessed as reduction in fungal growth incubated for 72 hrs by broth microdilution method; type: functional
[7] = Inhibition of chitin synthase extracted from Candida tropicalis ATCC 1369 using UDP-GlcNAc as substrate incubated for 1 hrs
Candida albicans [8] = test: Fungicidal activity against Candida albicans ATCC SC5314 assessed as dead cells (reference value: 8%); type: functional
Candida albicans [9] = test: Fungicidal activity against Candida albicans ATCC SC5314 assessed as live cells (reference value: 92%); type: functional
HeLa = test: Cytotoxicity against human HeLa cells incubated for 24 hrs by CCK8 assay; type: functional, cell-based
Candida albicans [10] = test: In vivo antifungal activity against Candida albicans 901 infected in mouse model assessed as reduction in genetic material content in lung at 5 microg/g, iv pre-infected with fungi by intravenous injection followed by compound administration and measured on day 8 by H and E staining based analysis; type: functional, organism-based; details: dose 5.0 µg/g, time 8.0 day
Candida albicans [11] = test: Antifungal activity against fluconazole-resistant Candida albicans 632 assessed as reduction in fungal growth incubated for 72 hrs by broth microdilution method; type: functional
Candida albicans [12] = test: Antifungal activity against fluconazole-resistant Candida albicans 904 assessed as reduction in fungal growth incubated for 72 hrs by broth microdilution method; type: functional
Candida albicans [13] = test: Induction of apoptosis in Candida albicans ATCC SC5314 assessed as late apoptotic cells by V-FITC/PI staining based flow cytometric analysis (reference value: 0.40%); type: functional
Candida albicans [14] = test: Induction of apoptosis in Candida albicans ATCC SC5314 assessed as necrotic cells by V-FITC/PI staining based flow cytometric analysis (reference value: 2.74%); type: functional
Candida albicans [15] = test: In vivo antifungal activity against Candida albicans 901 infected in mouse model assessed as decrease in PD-L1 protein expression level at 5 microg/g, iv pre-infected with fungi by intravenous injection followed by compound administration and measured on day 8 by Western blotting analysis; type: functional, organism-based; details: dose 5.0 µg/g, time 8.0 day
Candida albicans [16] = test: Induction of apoptosis in Candida albicans ATCC SC5314 assessed as viable cells by V-FITC/PI staining based flow cytometric analysis (reference value: 93.3%); type: functional
Candida albicans [17] = test: In vivo antifungal activity against Candida albicans 901 infected in mouse model assessed as decrease in IDO protein expression level at 5 microg/g, iv pre-infected with fungi by intravenous injection followed by compound administration and measured on day 8 by Western blotting analysis; type: functional, organism-based; details: dose 5.0 µg/g, time 8.0 day
Candida albicans [18] = test: Antifungal activity against fluconazole-resistant Candida albicans 17# assessed as reduction in fungal growth incubated for 72 hrs by broth microdilution method; type: functional
Candida albicans [19] = test: Antifungal activity against fluconazole-resistant Candida albicans 901 assessed as reduction in fungal growth incubated for 72 hrs by broth microdilution method; type: functional
Candida albicans [20] = test: In vivo antifungal activity against Candida albicans 901 infected in mouse model assessed as decrease in IFN-gamma protein expression level at 5 microg/g, iv pre-infected with fungi by intravenous injection followed by compound administration and measured on day 8 by Western blotting analysis; type: functional, organism-based; details: dose 5.0 µg/g, time 8.0 day
Candida albicans [21] = test: Induction of apoptosis in Candida albicans ATCC SC5314 assessed as early apoptotic cells by V-FITC/PI staining based flow cytometric analysis (reference value: 3.51%); type: functional
[22] = Binding affinity to chitin synthase (unknown origin) assessed as dissociation constant by SPR analysis

| Structure (SMILES) | MIC50 (Cryptococcus neoformans) [µg/mL] | MIC50 (Candida tropicalis) [µg/mL] | MIC50 (Aspergillus fumigatus) [µg/mL] | MIC50 (Nakaseomyces glabratus) [µg/mL] | MIC50 (Candida albicans [2]) [µg/mL] | IC50 (A549) [µM] | MIC50 (Candida albicans [6]) [µg/mL] | IC50 [7] [µM] | Activity (Candida albicans [8]) [%] | Activity (Candida albicans [9]) [%] | IC50 (HeLa) [µM] | MIC50 (Candida albicans [11]) [µg/mL] | MIC50 (Candida albicans [12]) [µg/mL] | Activity (Candida albicans [13]) [%] | Activity (Candida albicans [14]) [%] | Activity (Candida albicans [16]) [%] | MIC50 (Candida albicans [18]) [µg/mL] | MIC50 (Candida albicans [19]) [µg/mL] | Activity (Candida albicans [21]) [%] | Kd [22] [µM] | other results |
| --- | --- | --- | --- | --- | --- | --- | --- | --- | --- | --- | --- | --- | --- | --- | --- | --- | --- | --- | --- | --- | --- |
| C[C@@H](c1ncncc1F)[C@](O)(Cn1cncn1)c1ccc(F)cc1F | – | – | – | – | – | – | – | – | – | – | – | – | – | – | – | – | – | – | – | – | Activity (Candida albicans [1]): inactive |
| O=C(CNC(=O)c1nc2ccc(Cl)cc2c(=O)[nH]1)Nc1cccnc1 | 8 (≈ 22.4 µM) | 8 (≈ 22.4 µM) | ≥ 16 | 4 (≈ 11.2 µM) | 8 (≈ 22.4 µM) | – | – | – | – | – | – | – | – | – | – | – | – | – | – | – | – |
| NC(=O)OC[C@H](O)[C@@H](O)[C@H](N)C(=O)N[C@H](C(=O)O)[C@H]1O[C@@H](n2cc(CO)c(=O)[nH]c2=O)[C@H](O)[C@@H]1O [POLYOXIN B] | 4 (≈ 7.88 µM) | 8 (≈ 15.8 µM) | ≥ 16 | 2 (≈ 3.94 µM) | 4 (≈ 7.88 µM) | > 50 | 8 (≈ 15.8 µM) | 25.5 | 81 | 19 | > 50 | 4 (≈ 7.88 µM) | 8 (≈ 15.8 µM) | 4.5 | 33 | 57.5 | 2 (≈ 3.94 µM) | 4 (≈ 7.88 µM) | 4.93 | 0.00562 | Activity (Candida albicans [3]): Active; Activity (Candida albicans [4]): Active; Activity (Candida albicans [5]): Active; Activity (Candida albicans [10]): Active; Activity (Candida albicans [1]): Active; Activity (Candida albicans [15]): Active; Activity (Candida albicans [17]): Active; Activity (Candida albicans [20]): Active |
| O=C(NCC(=O)N1CCN(C(=O)c2ccccc2)CC1)c1nc2ccc(Cl)cc2c(=O)[nH]1 | 4 (≈ 8.81 µM) | 0.5 (≈ 1.1 µM) | 2 (≈ 4.41 µM) | 1 (≈ 2.2 µM) | 0.5 (≈ 1.1 µM) | > 50 | 2 (≈ 4.41 µM) | 19.7 | 94 | 6 | > 50 | 4 (≈ 8.81 µM) | 2 (≈ 4.41 µM) | 12.1 | 23.6 | 53.2 | 4 (≈ 8.81 µM) | 8 (≈ 17.6 µM) | 11.1 | 0.00194 | Activity (Candida albicans [5]): Active |
| O=C(CNC(=O)c1nc2ccc(Cl)cc2c(=O)[nH]1)NCc1ccccc1 | ≥ 16 | 2 (≈ 5.39 µM) | 8 (≈ 21.6 µM) | 8 (≈ 21.6 µM) | 4 (≈ 10.8 µM) | – | – | 30.3 | – | – | – | – | – | – | – | – | – | – | – | – | – |
| OC(Cn1cncn1)(Cn1cncn1)c1ccc(F)cc1F [FLUCONAZOLE] | 2 (≈ 6.53 µM) | 0.5 (≈ 1.63 µM) | 4 (≈ 13.1 µM) | 1 (≈ 3.27 µM) | 1 (≈ 3.27 µM) | – | ≥ 16 | – | – | – | – | ≥ 16 | ≥ 16 | – | – | – | ≥ 16 | ≥ 16 | – | – | – |
| O=C(NCC(=O)N1CCN(c2ccccc2)CC1)c1nc2ccc(Cl)cc2c(=O)[nH]1 | 2 (≈ 4.7 µM) | 1 (≈ 2.35 µM) | 4 (≈ 9.39 µM) | 1 (≈ 2.35 µM) | 0.5 (≈ 1.17 µM) | > 50 | 4 (≈ 9.39 µM) | – | 78 | 22 | > 50 | 8 (≈ 18.8 µM) | 4 (≈ 9.39 µM) | 7.3 | 16.6 | 62.9 | 2 (≈ 4.7 µM) | 8 (≈ 18.8 µM) | 13.2 | 0.0608 | – |
| CC(=O)N1CCN(C(=O)CNC(=O)c2nc3ccc(Cl)cc3c(=O)[nH]2)CC1 | ≥ 16 | 1 (≈ 2.55 µM) | 8 (≈ 20.4 µM) | 2 (≈ 5.1 µM) | 1 (≈ 2.55 µM) | – | – | – | – | – | – | – | – | – | – | – | – | – | – | – | – |
